Data set [1] relates to skin-mimicking three-dimensional epidermal models (EPI-MODEL12, J-TEC). Briefly: Evaluation of electro-osmosis (electro-permeation): drug permeation through three-dimensional epidermal model into reservoir solution with vs without electric current (permeation evaluation system 1), HPLC. Conditions: ketoprofen solution pH 6.6, 20 μA for 2 hours. As to the method: A specific method for evaluating drug permeation into the skin is described. A 7 mm×7 mm carbon cloth is coated with 80 µl of a solution of multi-walled carbon nanotubes in two separate instances and dried at 60° C. The carbon cloth is washed with pure water and further dried to prepare an electrode to be provided directly on cells. Skin-mimicking three-dimensional epidermal models (EPI-MODEL12, J-TEC) are used as the cells. Phosphate-buffered saline (PBS) is used as a reservoir solution. An Ag/AgCl electrode is introduced into the reservoir solution. Subsequently, each electrode is electrically connected to a […] source meter. A drug is dissolved in an appropriate solution. The drug solution of 400 µl is added dropwise to the cells, and the carbon cloth electrode is soaked therein. First, an electrode on the cells is connected to the positive electrode, and the Ag/AgCl electrode on the reservoir solution side is connected to the negative electrode. […] In the same manner, comparative experiment of adding 400 µl of the same drug solution dropwise to the cells is performed without the application of the electric current. […] Analysis can be performed by HPLC analysis, mass analysis, or other means. The amount of permeation with the application of the electric current is compared with that without the application of the electric current. […]

The conditions of data set [2]: cited from earlier work.

Counter-ions that a name gives are not always drawn.

Turning to `CC(C(=O)O)c1cccc(C(=O)c2ccccc2)c1` (stereo not drawn) [ketoprofen], the “amount of permeation compared with a system without applying an electric current (100%)” value in data set [1] (electrode on the cells connected to positive electrode) stood at 306%. Also, the “amount of permeation relative to that measured in a system without applying an electric current (100%)” value in data set [1] (reversed direction, electrode on the cells connected to negative electrode) amounted to 231%.
`CCCCNc1ccc(C(=O)OCCN(C)C)cc1` [tetracaine hydrochloride]: in data set [2], the pKa is 8.4.

These data come from patent US20260263384A1, “TRANSDERMAL ELLECTRICALLY CONDUCTIVE PATCH” (KIKKOMAN CORPORATION, priority 2023, published 2026).
